pIC50: −log10 of the molar value.
What was measured:
Assay type in all cases: cell-based
[1] = molecular target: T1, EGFR WT (Ba/F3 cells) (Homo sapiens, UniProt P00533); experiment: Inhibitor activity on EGFR-dependent cell growth (CellTiter-Glo, 72 h), Ba/F3 EGFR WT; details: read-out: BaF3 WT IC50
T1 construct: expressed in transfected cells; host or cells: Ba/F3 (murine pro-B cells), retroviral transduction, puromycin selection, maintained with EGF
Outline: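 This growth assay used Ba/F3 cells that depend on wild-type EGFR and are kept in EGF without IL3. Compounds were made up as 10 mM DMSO stocks and diluted 3-fold over 10 points. 120 nL went onto 600 cells/well. After 72 hours, 40 μL CellTiter-Glo was added and luminescence read on EnVision after 30 min.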

[2] = molecular target: T2, EGFR exon 20 NPG Ins D770_N771 (Ba/F3 cells) (Homo sapiens, UniProt P00533, INS770NPG); experiment: Inhibitor activity on EGFR-dependent cell growth (CellTiter-Glo, 72 h), Ba/F3 EGFR exon 20 NPG Ins; details: read-out: BaF3 NPG IC50
T2 construct: expressed in transfected cells; host or cells: Ba/F3 (murine pro-B cells), retroviral transduction, puromycin selection, IL3-independent pool
T2 sequence (P00533 with tags, fused parts or gaps INS770NPG): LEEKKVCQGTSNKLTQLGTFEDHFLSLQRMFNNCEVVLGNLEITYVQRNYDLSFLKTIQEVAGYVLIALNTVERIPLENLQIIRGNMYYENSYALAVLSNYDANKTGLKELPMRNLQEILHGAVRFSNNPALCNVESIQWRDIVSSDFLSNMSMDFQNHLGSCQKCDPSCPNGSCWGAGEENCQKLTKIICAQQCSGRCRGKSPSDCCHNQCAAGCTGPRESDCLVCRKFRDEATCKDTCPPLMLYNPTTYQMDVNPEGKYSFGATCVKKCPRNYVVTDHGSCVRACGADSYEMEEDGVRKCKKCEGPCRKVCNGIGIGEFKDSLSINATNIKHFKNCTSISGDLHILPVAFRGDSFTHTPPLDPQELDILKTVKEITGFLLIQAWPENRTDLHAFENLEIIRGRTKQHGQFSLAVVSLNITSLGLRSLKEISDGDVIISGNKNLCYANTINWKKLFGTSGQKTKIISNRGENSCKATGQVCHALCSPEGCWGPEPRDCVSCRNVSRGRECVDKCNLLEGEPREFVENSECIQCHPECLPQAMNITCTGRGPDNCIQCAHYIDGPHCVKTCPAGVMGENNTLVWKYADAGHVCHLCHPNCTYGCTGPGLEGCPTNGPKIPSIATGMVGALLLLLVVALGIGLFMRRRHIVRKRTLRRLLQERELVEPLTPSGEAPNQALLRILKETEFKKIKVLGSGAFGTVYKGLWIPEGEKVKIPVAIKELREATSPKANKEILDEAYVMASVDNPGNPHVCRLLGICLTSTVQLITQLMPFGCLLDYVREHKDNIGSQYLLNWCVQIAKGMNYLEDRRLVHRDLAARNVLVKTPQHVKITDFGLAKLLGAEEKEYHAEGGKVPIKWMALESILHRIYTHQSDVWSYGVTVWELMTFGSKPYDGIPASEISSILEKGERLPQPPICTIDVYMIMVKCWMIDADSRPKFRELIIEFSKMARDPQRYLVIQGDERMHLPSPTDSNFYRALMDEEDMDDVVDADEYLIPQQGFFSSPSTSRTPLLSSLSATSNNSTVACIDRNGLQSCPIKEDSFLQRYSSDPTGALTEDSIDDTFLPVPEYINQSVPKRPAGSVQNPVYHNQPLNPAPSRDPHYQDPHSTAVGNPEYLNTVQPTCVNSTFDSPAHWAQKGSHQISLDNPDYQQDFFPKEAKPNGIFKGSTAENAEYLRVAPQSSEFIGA
Outline: (§1)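 IC50s derive from a sigmoidal dose–response fit of CellTiter-Glo signal. The signal was normalised between […]-treated cells and cell-free medium. Ba/F3 mutant-EGFR cells, seeded at 400–800/well depending on the line, had 72 h of exposure to a 10-point, 3-fold compound series.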

[3] = molecular target: T3, EGFR exon 20 FQEA Ins A763_V764 (Ba/F3 cells) (Homo sapiens, UniProt P00533, INS763FQEA); experiment: Inhibitor activity on EGFR-dependent cell growth (CellTiter-Glo, 72 h), Ba/F3 EGFR exon 20 FQEA Ins; details: read-out: BaF3 FQEA IC50
T3 construct: expressed in transfected cells; host or cells: Ba/F3 (murine pro-B cells), retroviral transduction, puromycin selection, IL3-independent pool
Outline: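 Mutant EGFR drives IL3-independent growth of engineered Ba/F3 pools. L858R cells go in at 400/well, L858R/C797S at 600, and exon 19del or FQEA insertion at 800. After 72 h with compound, plates are equilibrated 15 min at RT. Reagent is added 1:1, followed by 30 min and a luminescence read.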

[4] = molecular target: T4, EGFR exon 20 ASV Ins V769_D770 (Ba/F3 cells) (Homo sapiens, UniProt P00533, INS769ASV); experiment: Inhibitor activity on EGFR phosphorylation (pEGFR AlphaLISA, 2 h), Ba/F3 EGFR exon 20 ASV Ins
T4 construct: expressed in transfected cells; host or cells: Ba/F3 (murine pro-B cells), retroviral transduction, puromycin selection, IL3-independent pool
T4 sequence (P00533 with tags, fused parts or gaps INS769ASV): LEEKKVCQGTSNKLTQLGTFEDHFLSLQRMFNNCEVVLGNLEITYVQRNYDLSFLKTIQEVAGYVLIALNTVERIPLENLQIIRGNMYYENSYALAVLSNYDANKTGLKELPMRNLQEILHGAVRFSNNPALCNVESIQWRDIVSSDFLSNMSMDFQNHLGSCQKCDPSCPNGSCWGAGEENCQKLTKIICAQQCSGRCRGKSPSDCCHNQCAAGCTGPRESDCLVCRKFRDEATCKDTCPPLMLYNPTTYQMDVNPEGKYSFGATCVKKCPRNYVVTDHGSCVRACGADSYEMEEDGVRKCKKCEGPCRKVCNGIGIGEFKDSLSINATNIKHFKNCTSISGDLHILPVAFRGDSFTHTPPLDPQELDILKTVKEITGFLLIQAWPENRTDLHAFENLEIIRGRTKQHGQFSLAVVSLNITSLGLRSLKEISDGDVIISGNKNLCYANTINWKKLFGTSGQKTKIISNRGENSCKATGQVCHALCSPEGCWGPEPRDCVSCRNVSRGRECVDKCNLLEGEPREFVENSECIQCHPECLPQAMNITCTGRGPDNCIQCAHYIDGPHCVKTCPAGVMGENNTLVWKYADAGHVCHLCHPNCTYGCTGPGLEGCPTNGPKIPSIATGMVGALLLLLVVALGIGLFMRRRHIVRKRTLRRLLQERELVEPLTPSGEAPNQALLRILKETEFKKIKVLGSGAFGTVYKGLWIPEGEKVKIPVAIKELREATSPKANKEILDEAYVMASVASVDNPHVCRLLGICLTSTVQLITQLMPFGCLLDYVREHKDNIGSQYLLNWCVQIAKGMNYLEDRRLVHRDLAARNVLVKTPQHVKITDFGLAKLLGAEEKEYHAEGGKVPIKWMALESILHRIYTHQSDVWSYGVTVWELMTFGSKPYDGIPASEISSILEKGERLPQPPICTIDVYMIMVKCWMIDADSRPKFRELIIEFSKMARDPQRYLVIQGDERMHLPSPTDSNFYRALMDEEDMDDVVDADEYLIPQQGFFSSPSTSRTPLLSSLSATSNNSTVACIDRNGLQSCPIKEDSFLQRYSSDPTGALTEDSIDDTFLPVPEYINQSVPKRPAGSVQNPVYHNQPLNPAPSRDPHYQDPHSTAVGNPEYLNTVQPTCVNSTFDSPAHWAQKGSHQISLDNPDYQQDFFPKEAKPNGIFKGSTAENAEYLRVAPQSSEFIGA
From the text: Example B. Inhibitor Activity on EGFR phosphorylation (pEGFR)
EGFR mutant Ba/F3 cells were generated by transduction with retrovirus containing vectors expressing EGFR L858R, EGFR exon 19del, EGFR L858R/C797S, EGFR exon 20 NPG Ins D770_N771, EGFR exon 20 ASV Ins V769_D770, or EGFR exon 20 SVD Ins D770_N771 genes along with a puromycin selection marker. Transduced cells are selected with puromycin for 7 days and are then be transferred into culture media without Interleukin 3 (IL3). Surviving cells are confirmed to express EGFR by Western blot and maintained as a pool. CUTO14 cells were obtained from Dr. Robert C. Doebele at the University of Colorado. The IC50 date are included in Table 6 and Table 7.
1.1 Cells are harvested from flask into cell culture medium and the cell number counted.
1.2 Cells are diluted with culture medium to the desired density and 40 μL of cell suspension is added into each well of 384-well cell culture plate and the seeding density is 50K cells/well (Ba/F3) or 12.5K cells/well (CUTO14).
2 Compound Preparation and Treatment
2.1 Test compounds are dissolved to 10 mM in a DMSO stock solution. 45 μL of stock solution is transferred to a 384 polypropylene plate (pp-plate). Perform 3-fold, 10-point dilution via transferring 15 μL compound into 30 μL DMSO using a TECAN (EVO200) liquid handler.
2.2 Spin plates at room temperature at 1,000 RPM for 1 minute.
2.3 Transfer 5 nL of diluted compound from compound source plate into the cell plate.
2.4 After compound treatment for 2 hours, perform pEGFR detection by AlphaLISA for compound treatment plates as described in “Detection” section.
3 Detection by pEGFR AlphaLISA (Perkin-Elmer)
3.1 Plates are removed from incubators and equilibrated at room temperature for 10 minutes, and media was removed
3.2 10 μL of lysis buffer is added and plates shaken at 600 rpm for 1 hr.
3.3 Prepare acceptor mix just before use and dispense 5 μL of acceptor mix to all the wells. Shake 350 rpm for Ihr in the dark
3.4 Prepare donor mix under low light conditions prior to use. Dispense 5 μL of donor mix to all the wells. Mix well on the shaker, seal and wrap in aluminum foil and incubate 1.5 hrs at room temperature in the dark
3.5 Transfer 18.5 μL mixture to OptiPlate 384, and read using an Envision. The IC50 date were included in Table 6 and Table 7.

[5] = molecular target: T4, EGFR exon 20 ASV Ins V769_D770 (Ba/F3 cells); experiment: Inhibitor activity on EGFR-dependent cell growth (CellTiter-Glo, 72 h), Ba/F3 EGFR exon 20 ASV Ins; details: read-out: BaF3 ASV IC50
Outline: as §1

[6] = molecular target: T5, EGFR exon 20 SVD Ins D770_N771 (Ba/F3 cells) (Homo sapiens, UniProt P00533, INS770SVD); experiment: Inhibitor activity on EGFR-dependent cell growth (CellTiter-Glo, 72 h), Ba/F3 EGFR exon 20 SVD Ins; details: read-out: BaF3 SVD IC50
T5 construct: expressed in transfected cells; host or cells: Ba/F3 (murine pro-B cells), retroviral transduction, puromycin selection, IL3-independent pool
T5 sequence (P00533 with tags, fused parts or gaps INS770SVD): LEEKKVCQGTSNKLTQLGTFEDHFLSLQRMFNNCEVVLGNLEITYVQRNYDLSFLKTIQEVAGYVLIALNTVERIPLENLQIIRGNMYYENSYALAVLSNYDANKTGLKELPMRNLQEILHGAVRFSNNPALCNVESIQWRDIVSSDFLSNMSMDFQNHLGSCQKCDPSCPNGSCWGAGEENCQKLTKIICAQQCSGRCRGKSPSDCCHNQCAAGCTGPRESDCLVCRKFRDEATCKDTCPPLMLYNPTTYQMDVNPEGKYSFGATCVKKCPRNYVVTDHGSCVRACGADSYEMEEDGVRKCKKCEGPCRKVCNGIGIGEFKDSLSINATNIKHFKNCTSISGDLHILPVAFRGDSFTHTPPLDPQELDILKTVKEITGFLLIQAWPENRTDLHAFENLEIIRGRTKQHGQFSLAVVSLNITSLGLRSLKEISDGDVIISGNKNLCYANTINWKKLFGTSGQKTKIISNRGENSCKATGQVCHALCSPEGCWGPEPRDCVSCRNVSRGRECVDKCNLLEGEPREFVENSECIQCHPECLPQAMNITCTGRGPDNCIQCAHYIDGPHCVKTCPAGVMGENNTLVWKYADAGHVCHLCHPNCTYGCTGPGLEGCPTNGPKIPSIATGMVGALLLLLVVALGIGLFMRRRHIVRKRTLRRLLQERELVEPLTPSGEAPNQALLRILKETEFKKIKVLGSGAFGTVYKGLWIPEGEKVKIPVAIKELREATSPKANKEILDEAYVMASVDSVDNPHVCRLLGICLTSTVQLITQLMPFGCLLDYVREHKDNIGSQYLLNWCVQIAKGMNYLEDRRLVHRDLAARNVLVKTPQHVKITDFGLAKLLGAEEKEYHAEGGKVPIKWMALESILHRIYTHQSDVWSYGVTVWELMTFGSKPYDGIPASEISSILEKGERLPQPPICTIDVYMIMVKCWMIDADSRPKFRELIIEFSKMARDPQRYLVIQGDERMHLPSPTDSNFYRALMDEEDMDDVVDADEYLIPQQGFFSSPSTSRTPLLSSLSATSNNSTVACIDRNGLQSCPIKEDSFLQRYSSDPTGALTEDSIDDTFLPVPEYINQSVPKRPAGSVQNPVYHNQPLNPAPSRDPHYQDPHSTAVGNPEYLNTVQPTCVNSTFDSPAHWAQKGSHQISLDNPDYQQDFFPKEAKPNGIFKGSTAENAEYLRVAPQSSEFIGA
Outline: as §1

[7] = EGFR phosphorylation, AlphaLISA, 2 hours, read-out: ASV IC50 (pEGFR)

T1 sequence (P00533 25-1210): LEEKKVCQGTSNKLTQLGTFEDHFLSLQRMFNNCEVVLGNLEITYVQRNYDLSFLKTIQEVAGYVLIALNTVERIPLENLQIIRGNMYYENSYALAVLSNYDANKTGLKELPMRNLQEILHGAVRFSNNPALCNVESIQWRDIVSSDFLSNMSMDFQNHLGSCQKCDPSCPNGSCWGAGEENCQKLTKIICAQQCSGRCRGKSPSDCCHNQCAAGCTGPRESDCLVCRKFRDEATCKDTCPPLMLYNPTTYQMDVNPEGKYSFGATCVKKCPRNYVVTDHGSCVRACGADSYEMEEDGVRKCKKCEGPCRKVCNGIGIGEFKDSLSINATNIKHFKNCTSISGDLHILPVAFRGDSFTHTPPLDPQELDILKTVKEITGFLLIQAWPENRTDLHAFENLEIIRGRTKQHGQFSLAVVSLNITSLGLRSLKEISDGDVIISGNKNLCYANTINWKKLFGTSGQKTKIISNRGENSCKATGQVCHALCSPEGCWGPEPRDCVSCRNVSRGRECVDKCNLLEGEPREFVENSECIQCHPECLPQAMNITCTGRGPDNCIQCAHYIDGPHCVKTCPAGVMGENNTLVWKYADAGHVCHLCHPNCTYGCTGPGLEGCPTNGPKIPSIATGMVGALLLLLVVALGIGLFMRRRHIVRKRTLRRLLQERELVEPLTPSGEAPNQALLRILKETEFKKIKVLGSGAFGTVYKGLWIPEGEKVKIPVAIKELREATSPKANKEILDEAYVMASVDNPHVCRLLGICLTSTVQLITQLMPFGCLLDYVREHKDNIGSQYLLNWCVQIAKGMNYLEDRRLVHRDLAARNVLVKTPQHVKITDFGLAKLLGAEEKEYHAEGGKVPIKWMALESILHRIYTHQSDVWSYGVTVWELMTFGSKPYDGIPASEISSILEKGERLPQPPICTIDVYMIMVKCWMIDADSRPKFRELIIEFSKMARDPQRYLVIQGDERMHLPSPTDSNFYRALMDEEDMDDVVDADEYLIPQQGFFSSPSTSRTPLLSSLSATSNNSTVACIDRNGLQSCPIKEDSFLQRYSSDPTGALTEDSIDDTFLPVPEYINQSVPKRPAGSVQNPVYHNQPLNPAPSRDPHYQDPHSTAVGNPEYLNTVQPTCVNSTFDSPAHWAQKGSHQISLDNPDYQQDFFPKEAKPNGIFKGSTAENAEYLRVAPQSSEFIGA

SMILES	pIC50 [1]	pIC50 [2]	pIC50 [3]	pIC50 [4]	pIC50 [5]	pIC50 [6]	pIC50 [4, 7]
Nc1nccc(-c2[nH]c3c(c2Nc2cccc(Cl)c2F)C(=O)NCC3)n1 [Compound 706, 2-(2-aminopyrimidin-4-yl)-3-[(3-chloro-2-fluorophenyl)amino]-1H,5H,6H,7H-pyrrolo[3,2-c]pyridin-4-one]	6.00 to 7.00	> 7.00	6.00 to 7.00	> 7.00			
COc1c(Cl)cccc1Nc1c(-c2ccnc(NCCN(C)C)n2)[nH]c2c1C(=O)NCC2 [Compound 707, 3-((3-chloro-2-methoxyphenyl)amino)-2-(2-((2-(dimethylamino)ethyl)amino)pyrimidin-4-yl)-1,5,6,7-tetrahydro-4H-pyrrolo[3,2-c]pyridin-4-one]	< 6.00	< 6.00	< 6.00		< 6.00	< 6.00	< 6.00
Nc1nccc(-c2[nH]c3c(c2Nc2cccc(C(F)(F)F)c2)C(=O)NCC3)n1 [compound 199]	< 6.00	6.00 to 7.00	6.00 to 7.00		< 6.00	< 6.00	6.00 to 7.00
CCc1c(Cl)cccc1Nc1c(-c2ccnc(N)n2)[nH]c2c1C(=O)NCC2 [compound 297]	< 6.00	6.00 to 7.00	6.00 to 7.00				> 7.00
COc1c(Cl)cccc1Nc1c(-c2ccnc(NC(=O)c3cccc(F)c3)n2)[nH]c2c1C(=O)NCC2 [compound 102]	< 6.00	6.00 to 7.00	6.00 to 7.00		6.00 to 7.00	6.00 to 7.00	> 7.00
COc1c(Cl)cccc1Nc1c(-c2ccnc(NC[C@@H]3CCCO3)n2)[nH]c2c1C(=O)NCC2 [compound 722, 3-[(3-chloro-2-methoxyphenyl)amino]-2-(2-[[(2S)-oxolan-2-ylmethyl]amino]pyrimidin-4-yl)-1H,5H,6H,7H-pyrrolo[3,2-c]pyridin-4-one]	< 6.00	< 6.00	< 6.00		< 6.00	< 6.00	6.00 to 7.00
COc1c(Cl)cccc1Nc1c(-c2ncnc3[nH]ccc23)[nH]c2c1C(=O)NCC2 [compound 289]	< 6.00	< 6.00	< 6.00		< 6.00	< 6.00	< 6.00
COc1c(Nc2c(-c3ccnc(N)n3)[nH]c3c2C(=O)NCC3)cccc1C(F)(F)F [Compound 698, 2-(2-aminopyrimidin-4-yl)-3-[[2-methoxy-3-(trifluoromethyl)phenyl]amino]-1H,5H,6H,7H-pyrrolo[3,2-c]pyridin-4-one]	< 6.00	6.00 to 7.00	6.00 to 7.00				6.00 to 7.00
COc1c(Cl)cccc1Nc1c(-c2ccnc(NC(C)C)n2)[nH]c2c1C(=O)NCC2 [compound 225]	< 6.00	6.00 to 7.00	< 6.00		6.00 to 7.00	6.00 to 7.00	6.00 to 7.00
COc1c(Cl)cccc1Nc1c(-c2ccnc(NCC(F)F)n2)[nH]c2c1C(=O)NCC2 [Compound 702, 3-[(3-chloro-2-methoxyphenyl)amino]-2-[2-[(2,2-difluoroethyl)amino]pyrimidin-4-yl]-1H,5H,6H,7H-pyrrolo[3,2-c]pyridin-4-one]	< 6.00	6.00 to 7.00	6.00 to 7.00		6.00 to 7.00	6.00 to 7.00	6.00 to 7.00
COc1c(F)cccc1Nc1c(-c2nc(N)ncc2F)[nH]c2c1C(=O)NCC2 [Compound 688, 2-(2-amino-5-fluoropyrimidin-4-yl)-3-[(3-fluoro-2-methoxyphenyl)amino]-1H,5H,6H,7H-pyrrolo[3,2-c]pyridin-4-one]	< 6.00	< 6.00	< 6.00		< 6.00	< 6.00	< 6.00
COc1c(F)cccc1Nc1c(-c2snc3cccnc23)[nH]c2c1C(=O)NCC2 [Compound 156, 3-((3-fluoro-2-methoxyphenyl)amino)-2-(isothiazolo[4,3-b]pyridin-3-yl)-1,5,6,7-tetrahydro-4H-pyrrolo[3,2-c]pyridin-4-one]	< 6.00	< 6.00	< 6.00		< 6.00	< 6.00	< 6.00
COc1c(Cl)cccc1Nc1c(-c2ccnc(NCCF)n2)[nH]c2c1C(=O)NCC2 [compound 710, 3-[(3-chloro-2-methoxyphenyl)amino]-2-[2-[(2-fluoroethyl)amino]pyrimidin-4-yl]-1H,5H,6H,7H-pyrrolo[3,2-c]pyridin-4-one]	< 6.00	6.00 to 7.00	6.00 to 7.00		6.00 to 7.00	6.00 to 7.00	> 7.00
COc1c(Cl)cccc1Nc1c(-c2ccnc(NC[C@H]3CCCO3)n2)[nH]c2c1C(=O)NCC2 [compound 721, (R)-3-((3-chloro-2-methoxyphenyl)amino)-2-(2-(((tetrahydrofuran-2-yl)methyl)amino)pyrimidin-4-yl)-1,5,6,7-tetrahydro-4H-pyrrolo[3,2-c]pyridin-4-one]	< 6.00	< 6.00	< 6.00		< 6.00	< 6.00	6.00 to 7.00
COc1c(Cl)cccc1Nc1c(-c2ccnc(NCC(F)(F)F)n2)[nH]c2c1C(=O)NCC2 [Compound 701, 3-[(3-chloro-2-methoxyphenyl)amino]-2-[2-[(2,2,2-trifluoroethyl)amino]pyrimidin-4-yl]-1H,5H,6H,7H-pyrrolo[3,2-c]pyridin-4-one]	< 6.00	< 6.00	< 6.00		< 6.00	< 6.00	6.00 to 7.00
COc1nn(C)cc1Nc1nccc(-c2[nH]c3c(c2Nc2cccc(Cl)c2OC)C(=O)NCC3)n1 [compound 219]	> 7.00	> 7.00	> 7.00		> 7.00	> 7.00	> 7.00
Cc1c(Cl)cccc1Nc1c(-c2ccnc(N)n2)[nH]c2c1C(=O)NCC2 [compound 725, 2-(2-aminopyrimidin-4-yl)-3-[(3-chloro-2-methylphenyl)amino]-1H,5H,6H,7H-pyrrolo[3,2-c]pyridin-4-one; trifluoroacetic acid]	6.00 to 7.00	> 7.00	6.00 to 7.00				> 7.00
Nc1nccc(-c2[nH]c3c(c2Nc2cccc4c2OCO4)C(=O)NCC3)n1 [compound 306]	< 6.00		6.00 to 7.00		< 6.00	< 6.00	6.00 to 7.00
C#Cc1cccc(Nc2c(-c3ccnc(N)n3)[nH]c3c2C(=O)NCC3)c1OC [Compound 703, 2-(2-aminopyrimidin-4-yl)-3-[(3-ethynyl-2-methoxyphenyl)amino]-1H,5H,6H,7H-pyrrolo[3,2-c]pyridin-4-one]	< 6.00		< 6.00		< 6.00	< 6.00	6.00 to 7.00

From US20240101576A1, “HETEROCYCLIC INHIBITORS OF EGFR AND/OR HER2, FOR USE IN THE TREATMENT OF CANCER” (Scorpion Therapeutics, Inc., priority 2020, published 2024)
